Assay results reported in patent US7514432B2, “Compounds and methods of treating cell proliferative diseases, retinopathies and arthritis” (Exonhit Therapeutics SA, priority 2003, dated 2009).

Key:
Type in all cases: cell-based
[1] = system: quiescent Swiss 3T3 cells; assay: Compounds' effect on the actin cytoskeleton (Rac-induced ruffles); settings: 30 min pre-treatment, subtoxic doses; osmotic shock 10 min (50% H2O)
Procedure: FIG. 1: Study of compounds effect on the actin cytoskeleton. Quiescent Swiss 3T3 cells were treated for 30 minutes with various concentrations of the compounds and were then submitted to osmotic shock by 10 min. incubation in a medium containing 50% H2O. Cells were subsequently fixed, permeabilized and labeled with Phalloidin TRITC. 100 to 200 cells were counted under a microscope, and the percentage of cells displaying lamellipodia and ruffles was evaluated.
Quiescence of Swiss 3T3 cells: Cells are seeded at high density on coverslips in 5% FCS medium (special weak FCS). When cells become quiescent (after 6-10 days of culture), the medium is removed (a few microliters remaining in the well) and replaced with serum free medium. Cells are placed in the incubator overnight. […]
Immunofluorescence • Fixation and permeabilization: Medium is aspirated from the culture wells and replaced with fixation buffer (BRB80: 80 mM KPipes pH 6.8, 2 mM MgCl2, 5 mM EGTA, 0.3% paraformaldehyde). […] Mounting is allowed to dry at 37° C. for 1 h. • Quantification of the effect of the compounds: The total number of cells is counted under the microscope (at least three different fields, e.g. between 100 and 200 cells). The number of cells bearing the morphological features of interest is evaluated. The percentage of cells bearing the morphological features of interest is then calculated.

REF cells [2] = assay: Lamellipodia/ruffles formation after wounding
Procedure: This assay has been described by Nobes & Hall (J. Cell Biol., 1999). • Preparation of REF cells: REF cells are prepared from 15-18 E14 embryos. Briefly, the head, tail and viscerae are removed from the embryo. Only the torso is kept, sliced into small squares, washed, treated with trypsin-EDTA for 20 min. at 37° C., resuspended in medium, counted and plated. After 24 h, the cells are trypsinized and frozen in cryovials. 48 h before the wound healing assay, the cells are plated on coverslips. The day of the experiment, the cells are treated with the test compounds or DMSO alone. After 30 min., a scrape is done in the center of the coverslip using a small pipette tip. The cells are washed and fresh medium containing the compound or the DMSO is added. • Time-Lapse microscopy: The dishes containing the scraped coverslips and the treatment medium, sealed with parafilm is put under a thermostated microscope (37° C.) coupled to a video camera and a computer. Microscope images were collected every 5 minutes and recorded using the OpenLab software. When the assay is terminated (after 4 to 24 hours), pictures and movies are analyzed using the Metamorphe software. The pictures were calibrated (pixel converted to μm), and the velocity and total distance covered were calculated after tracking 7 to 10 single cells on the movies. […] The position of each point was recorded. […]

REF cells [3] = assay: Wound healing assay (time-lapse microscopy); settings: time lapse 8 hours
Procedure: FIG. 4: Migration assays. (A) Wound healing assay in REF cells. 7.6 10^4 cells were plated on coverslips 48 hours before the experiment. The cells were pre-treated for 30 min. with the compounds, and then a scrape was done using a pipette tip. The scraped coverslips in treatment medium were put under a thermostated microscope coupled to a video camera. Movies were analyzed as described in material and methods, and velocity and total distance covered by the cells were evaluated. Bar graphs represent the mean±SEM of 2 to 4 experiments. (B) Boyden chamber migration assay in HMEC1, NIH3T3 and MDA-MB-231 cells. […] After labeling, cells were washed with HBSS and fluorescence was read in a fluorescence plate reader. Fluorescence values were normalized against the fluorescence obtained for the 1% DMSO control. […]
This assay has been described by Nobes & Hall (J. Cell Biol., 1999). • Preparation of REF cells: REF cells are prepared from 15-18 E14 embryos. […] Only the torso is kept, sliced into small squares, washed, treated with trypsin-EDTA for 20 min. at 37° C., resuspended in medium, counted and plated. […] Microscope images were collected every 5 minutes and recorded using the OpenLab software. When the assay is terminated (after 4 to 24 hours), pictures and movies are analyzed using the Metamorphe software. […] The position of each point was recorded. […]

Row | SMILES | formation of ruffles induced by Rac after osmotic shock [1] | lamellipodia/ruffles formation after wounding (REF cells [2]) | decrease of migration of REF cells (velocity and total distance covered) (REF cells [3]; 30 μM) | decrease of migration of REF cells (velocity and total distance covered) (REF cells [3]; 10 μM) [%]
1 | Cl.Cl.O=c1cc(CN2CCOCC2)occ1OCCCCCSc1ccnc2cc(C(F)(F)F)ccc12 [EHT 1864, 5-(5-(7-(Trifluoromethyl)quinolin-4-ylthio)pentyloxy)-2-(morpholinomethyl)-4H-pyran-4-one dihydrochloride] | dose-dependently prevents formation of ruffles | dose-dependent inhibition of lamellipodia/ruffles formation | about 48% | 
2 | CN1CCN(Cc2cc(=O)c(OCCCCCSc3ccnc4cc(C(F)(F)F)ccc34)co2)CC1.Cl.Cl.Cl [EHT 9241, 5-(5-(7-(Trifluoromethyl)quinolin-4-ylthio)pentyloxy)-2-((4-methylpiperazin-1-yl)methyl)-4H-pyran-4-one trihydrochloride] | dose-dependently prevents formation of ruffles | dose-dependent inhibition of lamellipodia/ruffles formation |  | 36
